How the values were obtained:
human NK1 receptor = human NK1 receptor (Homo sapiens, UniProt P25103); test: NK1 receptor binding, [3H]substance P displacement, CHO cell membranes; conditions: first value of the cell NK1/NK3; read-out: pKi NK1 (converted)
[1] = biological target: T1, Recombinant human NK3 (hNK3) receptor (Homo sapiens, UniProt P29371); test: NK3 receptor binding, [3H]SR142801 displacement, membrane preparations; conditions: second value of the cell NK1/NK3; read-out: pKi NK3 (converted)
T1 construct: expressed in transfected cells
T1 sequence (P29371 1-465): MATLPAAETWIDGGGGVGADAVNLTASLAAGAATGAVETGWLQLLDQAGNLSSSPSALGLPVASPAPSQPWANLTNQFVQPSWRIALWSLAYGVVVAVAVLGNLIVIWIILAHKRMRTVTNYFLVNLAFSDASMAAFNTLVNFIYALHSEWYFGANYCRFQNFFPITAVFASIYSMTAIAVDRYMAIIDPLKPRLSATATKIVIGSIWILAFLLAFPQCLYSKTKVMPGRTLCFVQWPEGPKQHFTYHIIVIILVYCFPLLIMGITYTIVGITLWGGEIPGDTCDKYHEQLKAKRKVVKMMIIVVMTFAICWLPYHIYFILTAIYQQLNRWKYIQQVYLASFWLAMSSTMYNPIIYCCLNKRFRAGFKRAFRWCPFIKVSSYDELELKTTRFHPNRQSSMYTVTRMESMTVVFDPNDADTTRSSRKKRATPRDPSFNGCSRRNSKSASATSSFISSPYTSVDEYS
Outline: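 Buffer: Tris-HCl 50 mM pH 7.4, BSA 0.1%, MnCl2 4 mM, phosphoramidon 1 μM. ~2.5 μg membrane/well, 90 min RT. NSB with SB222200 (10 μM). Vacuum filtration over 0.3% PEI-treated GF/C, cold Tris/BSA washes, scintillation count; duplicates, ≥2 experiments.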

Chain of human NK1 receptor (P25103 whole entry): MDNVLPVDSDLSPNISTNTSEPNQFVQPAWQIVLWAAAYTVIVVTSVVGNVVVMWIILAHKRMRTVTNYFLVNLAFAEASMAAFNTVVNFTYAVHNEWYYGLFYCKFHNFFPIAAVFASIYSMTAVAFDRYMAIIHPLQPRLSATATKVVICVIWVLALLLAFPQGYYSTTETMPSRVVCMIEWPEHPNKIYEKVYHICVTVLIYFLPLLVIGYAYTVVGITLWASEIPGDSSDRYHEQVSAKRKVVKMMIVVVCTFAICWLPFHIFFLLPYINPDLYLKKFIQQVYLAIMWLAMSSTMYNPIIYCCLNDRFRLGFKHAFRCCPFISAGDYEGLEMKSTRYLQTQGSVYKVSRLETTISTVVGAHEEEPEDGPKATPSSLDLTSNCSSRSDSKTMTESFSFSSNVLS

SMILES | Ki (human NK1 receptor) | Ki [1]
CN(C(=O)C(C)(C)c1cc(C(F)(F)F)cc(C(F)(F)F)c1)c1cnc(N2C[C@H](O)C[C@H]2CO)cc1-c1ccc(F)c(Cl)c1 [Example 212, (2S,4R)-2-(3,5-Bis-trifluoromethyl-phenyl)-N-[4-(3-chloro-4-fluoro-phenyl)-6-(4-hydroxy-2-hydroxymethyl-pyrrolidin-1-yl)-pyridin-3-yl]-N-methyl-isobutyramide] | 0.813 nM | 2.51 nM
COc1ccccc1-c1cc(N2C[C@H](O)C[C@H]2CO)ncc1N(C)C(=O)C(C)(C)c1cc(C(F)(F)F)cc(C(F)(F)F)c1 [Example 214, (2S,4R)-2-(3,5-Bis-trifluoromethyl-phenyl)-N-[6-(4-hydroxy-2-hydroxymethyl-pyrrolidin-1-yl)-4-(2-methoxy-phenyl)-pyridin-3-yl]-N-methyl-isobutyramide] | 1.02 nM | 2.75 nM
CN(C(=O)C(C)(C)c1cc(C(F)(F)F)cc(C(F)(F)F)c1)c1cnc(N2C[C@H](O)C[C@H]2CO)cc1-c1ccccc1S(C)(=O)=O [Example 218, (2S,4R)-2-(3,5-Bis-trifluoromethyl-phenyl)-N-[6-(4-hydroxy-2-hydroxymethyl-pyrrolidin-1-yl)-4-(2-methanesulfonyl-phenyl)-pyridin-3-yl]-N-methyl-isobutyramide] | 2.63 nM | 7.24 nM
CN(C(=O)C(C)(C)c1cc(C(F)(F)F)cc(C(F)(F)F)c1)c1cnc(N2C[C@H](O)C[C@H]2CO)cc1-c1ccc(F)cc1F [Example 220, (2S,4R)-2-(3,5-Bis-trifluoromethyl-phenyl)-N-[4-(2,4-difluoro-phenyl)-6-(4-hydroxy-2-hydroxymethyl-pyrrolidin-1-yl)-pyridin-3-yl]-N-methyl-isobutyramide] | 1.51 nM | 6.61 nM
CN(C(=O)C(C)(C)c1cc(C(F)(F)F)cc(C(F)(F)F)c1)c1cnc(N2C[C@H](O)C[C@H]2CO)cc1-c1ccc(F)cc1Cl [Example 221, (2S,4R)-2-(3,5-Bis-trifluoromethyl-phenyl)-N-[4-(2-chloro-4-fluoro-phenyl)-6-(4-hydroxy-2-hydroxymethyl-pyrrolidin-1-yl)-pyridin-3-yl]-N-methyl-isobutyramide] | 0.933 nM | 5.25 nM
CN(C(=O)C(C)(C)c1cc(C(F)(F)F)cc(C(F)(F)F)c1)c1cnc(N2C[C@H](O)C[C@H]2CO)cc1-c1ccc(F)cc1C=O [Example 222, (2S,4R)-2-(3,5-Bis-trifluoromethyl-phenyl)-N-[4-(4-fluoro-2-formyl-phenyl)-6-(4-hydroxy-2-hydroxymethyl-pyrrolidin-1-yl)-pyridin-3-yl]-N-methyl-isobutyramide] | 1.05 nM | 1.02 nM
CN(C(=O)C(C)(C)c1cc(C(F)(F)F)cc(C(F)(F)F)c1)c1cnc(N2C[C@H](O)C[C@H]2CO)cc1-c1ccc(F)cc1CO [Example 223, (2S,4R)-2-(3,5-Bis-trifluoromethyl-phenyl)-N-[4-(4-fluoro-2-hydroxymethyl-phenyl)-6-(4-hydroxy-2-hydroxymethyl-pyrrolidin-1-yl)-pyridin-3-yl]-N-methyl-isobutyramide] | 0.708 nM | 3.09 nM
CN(C(=O)C(C)(C)c1cc(C(F)(F)F)cc(C(F)(F)F)c1)c1cnc(N2C[C@H](O)C[C@H]2CO)cc1-c1cc(Cl)ccc1Cl [Example 226, (2S,4R)-2-(3,5-Bis-trifluoromethyl-phenyl)-N-[4-(2,5-dichloro-phenyl)-6-(4-hydroxy-2-hydroxymethyl-pyrrolidin-1-yl)-pyridin-3-yl]-N-methyl-isobutyramide] | 7.76 nM | 16.6 nM
Cc1ccc(F)cc1-c1cc(N2C[C@H](O)C[C@H]2CO)ncc1N(C)C(=O)C(C)(C)c1cc(C(F)(F)F)cc(C(F)(F)F)c1 [Example 227, (2S,4R)-2-(3,5-Bis-trifluoromethyl-phenyl)-N-[4-(5-fluoro-2-methyl-phenyl)-6-(4-hydroxy-2-hydroxymethyl-pyrrolidin-1-yl)-pyridin-3-yl]-N-methyl-isobutyramide] | 1.1 nM | 1.38 nM
Cc1c(F)cccc1-c1cc(N2C[C@H](O)C[C@H]2CO)ncc1N(C)C(=O)C(C)(C)c1cc(C(F)(F)F)cc(C(F)(F)F)c1 [Example 228, (2S,4R)-2-(3,5-Bis-trifluoromethyl-phenyl)-N-[4-(3-fluoro-2-methyl-phenyl)-6-(4-hydroxy-2-hydroxymethyl-pyrrolidin-1-yl)-pyridin-3-yl]-N-methyl-isobutyramide] | 1.17 nM | 1.41 nM
CN(C(=O)C(C)(C)c1cc(C(F)(F)F)cc(C(F)(F)F)c1)c1cnc(N2C[C@H](O)C[C@H]2CO)cc1-c1cccc(Cl)c1Cl [Example 229, (2S,4R)-2-(3,5-Bis-trifluoromethyl-phenyl)-N-[4-(2,3-dichloro-phenyl)-6-(4-hydroxy-2-hydroxymethyl-pyrrolidin-1-yl)-pyridin-3-yl]-N-methyl-isobutyramide] | 2.95 nM | 1.86 nM
Cc1noc(C)c1-c1cc(N2C[C@H](O)C[C@H]2CO)ncc1N(C)C(=O)C(C)(C)c1cc(C(F)(F)F)cc(C(F)(F)F)c1 [Example 230, (2S,4R)-2-(3,5-Bis-trifluoromethyl-phenyl)-N-[4-(3,5-dimethyl-isoxazol-4-yl)-6-(4-hydroxy-2-hydroxymethyl-pyrrolidin-1-yl)-pyridin-3-yl]-N-methyl-isobutyramide] | 0.741 nM | 2.69 nM
COc1ccc(-c2cc(N3C[C@H](O)C[C@H]3CO)ncc2N(C)C(=O)C(C)(C)c2cc(C(F)(F)F)cc(C(F)(F)F)c2)c(OC)n1 [Example 231, (2S,4R)-2-(3,5-Bis-trifluoromethyl-phenyl)-N-[6′-(4-hydroxy-2-hydroxymethyl-pyrrolidin-1-yl)-2,6-dimethoxy-[3,4′]bipyridinyl-3′-yl]-N-methyl-isobutyramide] | 2.45 nM | 14.1 nM
CN(C(=O)C(C)(C)c1cc(C(F)(F)F)cc(C(F)(F)F)c1)c1cnc(N2C[C@H](O)C[C@H]2CO)cc1-c1cccnc1Cl [Example 232, (2S,4R)-2-(3,5-Bis-trifluoromethyl-phenyl)-N-[2-chloro-6′-(4-hydroxy-2-hydroxymethyl-pyrrolidin-1-yl)-[3,4′]bipyridinyl-3′-yl]-N-methyl-isobutyramide] | 0.575 nM | 1.35 nM

The remaining lines, values ahead:

Ki (human NK1 receptor) | Ki [1] | SMILES
0.661 nM | 3.24 nM | CN(C(=O)C(C)(C)c1cc(C(F)(F)F)cc(C(F)(F)F)c1)c1cnc(N2C[C@H](O)C[C@H]2CO)cc1-c1ccccc1N [Example 213, (2S,4R)-N-[4-(2-Amino-phenyl)-6-(4-hydroxy-2-hydroxymethyl-pyrrolidin-1-yl)-pyridin-3-yl]-2-(3,5-bis-trifluoromethyl-phenyl)-N-methyl-isobutyramide]
1.02 nM | 4.47 nM | CN(C(=O)C(C)(C)c1cc(C(F)(F)F)cc(C(F)(F)F)c1)c1cnc(N2C[C@H](O)C[C@H]2CO)cc1-c1ccccc1O [Example 215, (2S,4R)-2-(3,5-Bis-trifluoromethyl-phenyl)-N-[6-(4-hydroxy-2-hydroxymethyl-pyrrolidin-1-yl)-4-(2-hydroxy-phenyl)-pyridin-3-yl]-N-methyl-isobutyramide]
1.35 nM | 0.794 nM | Cc1ccccc1-c1cc(N2C[C@H](O)C[C@H]2CO)ncc1N(C)C(=O)C(C)(C)c1cc(C(F)(F)F)cc(C(F)(F)F)c1 [Example 216, (2S,4R)-2-(3,5-Bis-trifluoromethyl-phenyl)-N-[6-(4-hydroxy-2-hydroxymethyl-pyrrolidin-1-yl)-4-o-tolyl-pyridin-3-yl]-N-methyl-isobutyramide]
1.05 nM | 2.4 nM | CSc1ccccc1-c1cc(N2C[C@H](O)C[C@H]2CO)ncc1N(C)C(=O)C(C)(C)c1cc(C(F)(F)F)cc(C(F)(F)F)c1 [Example 217, (2S,4R)-2-(3,5-Bis-trifluoromethyl-phenyl)-N-[6-(4-hydroxy-2-hydroxymethyl-pyrrolidin-1-yl)-4-(2-methylsulfanyl-phenyl)-pyridin-3-yl]-N-methyl-isobutyramide]
1.45 nM | 20.4 nM | CN(C(=O)C(C)(C)c1cc(C(F)(F)F)cc(C(F)(F)F)c1)c1cnc(N2C[C@H](O)C[C@H]2CO)cc1-c1ccccc1C(N)=O [Example 219, (2S,4R)-2-[5-{[2-(3,5-Bis-trifluoromethyl-phenyl)-2-methyl-propionyl]-methyl-amino}-2-(4-hydroxy-2-hydroxymethyl-pyrrolidin-1-yl)-pyridin-4-yl]-benzamide]
1.12 nM | 1.51 nM | CN(C(=O)C(C)(C)c1cc(C(F)(F)F)cc(C(F)(F)F)c1)c1cnc(N2C[C@H](O)C[C@H]2CO)cc1-c1ccccc1C=O [Example 224, (2S,4R)-2-(3,5-Bis-trifluoromethyl-phenyl)-N-[4-(2-formyl-phenyl)-6-(4-hydroxy-2-hydroxymethyl-pyrrolidin-1-yl)-pyridin-3-yl]-N-methyl-isobutyramide]
1.66 nM | 2.57 nM | CN(C(=O)C(C)(C)c1cc(C(F)(F)F)cc(C(F)(F)F)c1)c1cnc(N2C[C@H](O)C[C@H]2CO)cc1-c1ccccc1CO [Example 225, (2S,4R)-2-(3,5-Bis-trifluoromethyl-phenyl)-N-[6-(4-hydroxy-2-hydroxymethyl-pyrrolidin-1-yl)-4-(2-hydroxymethyl-phenyl)-pyridin-3-yl]-N-methyl-isobutyramide]
